Source: ChEMBL document CHEMBL1909046, “DrugMatrix in vitro pharmacology data”

Experiments:
[1] = biological target: T1, Vasoactive intestinal polypeptide receptor 1 (Homo sapiens, UniProt P32241); format: cell membranes, Membrane; conditions: ht-29; note: in other assays of this panel Not Active means under 50% inhibition at 10 µM
T1 sequence (P32241 whole entry): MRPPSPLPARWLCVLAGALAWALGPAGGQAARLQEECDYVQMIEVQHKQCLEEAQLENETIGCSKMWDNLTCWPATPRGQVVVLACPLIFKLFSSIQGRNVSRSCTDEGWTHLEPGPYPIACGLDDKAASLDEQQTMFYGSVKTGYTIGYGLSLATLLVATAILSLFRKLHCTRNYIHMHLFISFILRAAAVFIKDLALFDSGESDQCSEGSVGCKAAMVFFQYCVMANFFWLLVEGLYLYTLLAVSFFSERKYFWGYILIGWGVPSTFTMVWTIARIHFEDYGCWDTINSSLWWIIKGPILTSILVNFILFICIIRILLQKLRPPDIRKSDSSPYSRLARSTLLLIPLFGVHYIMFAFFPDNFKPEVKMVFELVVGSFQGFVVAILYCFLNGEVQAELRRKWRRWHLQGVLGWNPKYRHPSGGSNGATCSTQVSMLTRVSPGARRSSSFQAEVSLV

[2] = biological target: T2, Alpha-1A adrenergic receptor (Rattus norvegicus, UniProt P43140); test: DRUGMATRIX: Alpha-1A adrenergic receptor radioligand binding (ligand: prazosin); format: cell membranes, Wistar, Submaxillary gland, Membrane; conditions: Not Active = under 50% inhibition at 10 µM
T2 sequence (P43140 whole entry): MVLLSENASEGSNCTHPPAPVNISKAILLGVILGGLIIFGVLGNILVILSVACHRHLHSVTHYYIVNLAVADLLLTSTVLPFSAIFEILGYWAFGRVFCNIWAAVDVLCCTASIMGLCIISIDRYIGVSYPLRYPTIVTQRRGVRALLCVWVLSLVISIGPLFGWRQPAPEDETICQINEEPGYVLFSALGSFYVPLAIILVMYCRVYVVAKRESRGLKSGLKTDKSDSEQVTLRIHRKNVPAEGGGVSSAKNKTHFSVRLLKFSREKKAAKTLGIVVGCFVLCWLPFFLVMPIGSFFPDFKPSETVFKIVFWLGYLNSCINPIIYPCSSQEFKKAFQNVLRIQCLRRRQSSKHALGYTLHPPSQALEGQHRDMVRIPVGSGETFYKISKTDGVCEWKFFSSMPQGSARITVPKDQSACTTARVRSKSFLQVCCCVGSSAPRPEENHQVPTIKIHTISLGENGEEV

[3] = biological target: Protein kinase C alpha type (Homo sapiens, UniProt P17252); format: cell-based; conditions: sf9;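 note: inhibition of PKCalpha kinase activity measured in an enzyme assay with histone as the phosphorylation substrate; in other assays of this panel Not Active means under 50% inhibition at 10 µM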
[4] = biological target: 5-hydroxytryptamine receptor 1B (Rattus norvegicus, UniProt P28564); format: cell membranes, Wistar, Cerebral cortex, Membrane; note: in other assays of this panel Not Active means under 50% inhibition at 10 µM
Sequence of 5-hydroxytryptamine receptor 1B (P28564 whole entry): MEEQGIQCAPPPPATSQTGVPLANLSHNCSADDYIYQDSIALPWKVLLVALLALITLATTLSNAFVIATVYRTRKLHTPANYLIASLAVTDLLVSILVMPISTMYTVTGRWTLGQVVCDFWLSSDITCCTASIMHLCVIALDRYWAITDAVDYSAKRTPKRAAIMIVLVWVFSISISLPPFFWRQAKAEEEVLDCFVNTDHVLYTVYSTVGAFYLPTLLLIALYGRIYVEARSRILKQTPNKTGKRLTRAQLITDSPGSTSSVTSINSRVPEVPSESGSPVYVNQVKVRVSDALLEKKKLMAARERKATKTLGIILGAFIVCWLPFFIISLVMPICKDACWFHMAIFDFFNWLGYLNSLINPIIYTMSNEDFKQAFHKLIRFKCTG

Caspase-1 = biological target: T3, Caspase-1 (Homo sapiens, UniProt P29466); parameters: species or system Escherichia coli;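 note: Caspase-1 enzyme inhibition assay with a peptide substrate; in other assays of this panel Not Active means under 50% inhibition at 10 µM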
T3 sequence (P29466 whole entry): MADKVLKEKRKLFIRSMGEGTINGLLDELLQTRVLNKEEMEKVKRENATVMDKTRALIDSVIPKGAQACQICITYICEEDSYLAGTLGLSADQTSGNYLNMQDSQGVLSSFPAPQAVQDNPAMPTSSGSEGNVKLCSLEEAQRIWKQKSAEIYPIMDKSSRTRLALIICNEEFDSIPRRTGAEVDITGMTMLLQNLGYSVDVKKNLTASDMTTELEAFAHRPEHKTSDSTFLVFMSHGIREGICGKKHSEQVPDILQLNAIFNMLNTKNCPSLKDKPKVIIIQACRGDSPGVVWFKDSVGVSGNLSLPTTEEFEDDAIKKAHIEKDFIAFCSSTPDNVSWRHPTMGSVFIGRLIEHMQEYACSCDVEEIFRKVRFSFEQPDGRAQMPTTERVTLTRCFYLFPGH

Acetylcholinesterase = Acetylcholinesterase (Homo sapiens, UniProt P22303); test: DRUGMATRIX: Acetylcholinesterase enzyme inhibition (substrate: acetylthiocholine); format: cell-based, HEK293; conditions: hek293; Not Active = under 50% inhibition at 10 µM
Sequence of Acetylcholinesterase (P22303 whole entry): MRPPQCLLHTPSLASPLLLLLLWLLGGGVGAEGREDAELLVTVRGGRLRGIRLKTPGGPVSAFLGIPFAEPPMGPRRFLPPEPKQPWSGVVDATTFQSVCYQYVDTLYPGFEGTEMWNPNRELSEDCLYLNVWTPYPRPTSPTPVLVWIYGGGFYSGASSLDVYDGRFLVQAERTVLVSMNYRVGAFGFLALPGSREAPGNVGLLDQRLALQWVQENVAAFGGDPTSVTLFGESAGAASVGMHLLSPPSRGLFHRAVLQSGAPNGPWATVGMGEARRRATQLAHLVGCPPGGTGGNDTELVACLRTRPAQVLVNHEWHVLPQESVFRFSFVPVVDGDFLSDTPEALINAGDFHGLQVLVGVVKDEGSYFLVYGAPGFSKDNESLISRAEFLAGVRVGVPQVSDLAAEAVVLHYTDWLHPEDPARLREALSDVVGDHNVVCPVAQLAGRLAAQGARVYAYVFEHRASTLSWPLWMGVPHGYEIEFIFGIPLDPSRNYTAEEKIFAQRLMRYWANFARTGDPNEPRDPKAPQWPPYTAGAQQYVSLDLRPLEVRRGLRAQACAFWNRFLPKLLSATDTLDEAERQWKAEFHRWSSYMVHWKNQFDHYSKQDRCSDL

[5] = biological target: T4, Alpha-2C adrenergic receptor (Homo sapiens, UniProt P18825); test: DRUGMATRIX: Adrenergic Alpha-2C radioligand binding (ligand: [3H] MK-912); format: cell membranes, Sf9, Membrane; conditions: sf9
T4 sequence (P18825 whole entry): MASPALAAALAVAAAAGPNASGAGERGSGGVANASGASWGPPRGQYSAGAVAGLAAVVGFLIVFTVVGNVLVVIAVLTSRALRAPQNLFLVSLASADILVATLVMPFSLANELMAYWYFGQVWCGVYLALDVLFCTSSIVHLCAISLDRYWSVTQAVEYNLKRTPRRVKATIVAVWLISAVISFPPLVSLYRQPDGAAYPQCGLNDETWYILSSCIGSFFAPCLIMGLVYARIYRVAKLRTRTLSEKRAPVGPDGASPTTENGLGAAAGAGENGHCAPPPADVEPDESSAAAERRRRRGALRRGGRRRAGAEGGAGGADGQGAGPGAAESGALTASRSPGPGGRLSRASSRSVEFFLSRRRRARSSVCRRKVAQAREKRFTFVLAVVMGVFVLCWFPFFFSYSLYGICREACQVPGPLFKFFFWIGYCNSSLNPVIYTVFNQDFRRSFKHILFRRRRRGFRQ

CCN(CC)CCNC(=O)c1ccc(N)cc1 [PROCAINAMIDE]
Not Active: IC50 [1] | IC50 [2] | IC50 [3] | IC50 [4] | IC50 (Caspase-1) | IC50 (Acetylcholinesterase) | IC50 [5]

C[C@]12C=CC(=O)C=C1CC[C@H]1[C@@H]3C[C@@H](O)[C@](O)(C(=O)CO)[C@@]3(C)C[C@H](O)[C@@]12F [TRIAMCINOLONE]
Not Active: IC50 [1] | IC50 [2] | IC50 [3] | IC50 [4] | IC50 (Caspase-1) | IC50 (Acetylcholinesterase) | IC50 [5]

CC[C@]1(O)C[C@@H]2CN(CCc3c([nH]c4ccccc34)[C@@](C(=O)OC)(c3cc4c(cc3OC)N(C)[C@H]3[C@@](O)(C(N)=O)[C@H](O)[C@]5(CC)C=CCN6CC[C@]43[C@@H]65)C2)C1 [VINDESINE]
Not Active: IC50 [1] | IC50 [2] | IC50 [3] | IC50 [4] | IC50 (Caspase-1) | IC50 (Acetylcholinesterase) | IC50 [5]

CCN(C(C)=O)c1cccc(-c2ccnc3c(C#N)cnn23)c1 [ZALEPLON]
Not Active: IC50 [1] | IC50 [2] | IC50 [3] | IC50 [4] | IC50 (Caspase-1) | IC50 (Acetylcholinesterase) | IC50 [5]

COBALTOUS CHLORIDE
Not Active: IC50 [1] | Ki [1] | IC50 [2] | Ki [2] | IC50 [3] | Ki [3] | IC50 [4] | Ki [4] | IC50 (Caspase-1) | Ki (Caspase-1) | IC50 (Acetylcholinesterase) | Ki (Acetylcholinesterase) | IC50 [5] | Ki [5]

COLISTIN
Not Active: IC50 [1] | Ki [1] | IC50 [2] | Ki [2] | IC50 [3] | Ki [3] | IC50 [4] | Ki [4] | IC50 (Caspase-1) | Ki (Caspase-1) | IC50 (Acetylcholinesterase) | Ki (Acetylcholinesterase) | IC50 [5] | Ki [5]
